ChEMBL document CHEMBL1156082, “Novel orally active morpholine N-arylsulfonamides gamma-secretase inhibitors with low CYP 3A4 liability” (Bioorg Med Chem Lett, 2009)

tested on: not listed separately; test: AUC (0 to 6 hrs) in rat blood at 10 mg/kg, po; type: ADME, organism-based; parameters: time < 6 hr, dose 10 mg/kg, route oral; conditions: not given

Row | Structure (SMILES) | AUC(0-t) at 6 h
1 | CN1C2CCC1CN(C(=O)OC1([C@H]3COC[C@@H](C4CC4)N3S(=O)(=O)c3ccc(Cl)cc3)CC1)C2 | 939 ng·h/mL
2 | O=C(OC1([C@H]2COC[C@@H](C3CC3)N2S(=O)(=O)c2ccc(Cl)cc2)CC1)N1CC[C@H](NS(=O)(=O)C(F)(F)F)C1 | 870 ng·h/mL
3 | CC1(C)OC[C@H](C2(OC(=O)N3CC4CCC(C3)N4CCO)CC2)N(S(=O)(=O)c2ccc(Cl)cc2)[C@@H]1C1CC1 | 1370 ng·h/mL
4 | NC(=O)CC1CCN(C(=O)OC2([C@H]3COC[C@@H](C4CC4)N3S(=O)(=O)c3ccc(Cl)cc3)CC2)CC1 | 35 ng·h/mL
5 | O=C(OC1([C@H]2COC[C@@H](C3CC3)N2S(=O)(=O)c2ccc(Cl)cc2)CC1)N1C2CCC1CN(CCO)C2 | 1280 ng·h/mL
6 | CC(=O)N1C2CCC1CN(C(=O)OC1([C@H]3CO[C@@H](C)[C@@H](C4CC4)N3S(=O)(=O)c3ccc(Cl)cc3)CC1)C2 | 178 ng·h/mL
7 | O=C(OC1([C@H]2COC[C@@H](C3CC3)N2S(=O)(=O)c2ccc(Cl)cc2)CC1)N1C2CCC1CNC2 | 4660 ng·h/mL
8 | O=C(OC1([C@H]2COC[C@@H](C3CC3)N2S(=O)(=O)c2ccc(Cl)cc2)CC1)N1CC[C@H](OCCO)C1 | 11 ng·h/mL
9 | CCN1C2CCC1CN(C(=O)OC1([C@H]3COC[C@@H](C4CC4)N3S(=O)(=O)c3ccc(Cl)cc3)CC1)C2 | 1100 ng·h/mL
10 | O=C(OC1([C@H]2COC[C@@H](C3CC3)N2S(=O)(=O)c2ccc(Cl)cc2)CC1)N1CC2CCC(C1)N2 | 4360 ng·h/mL
11 | CN(C)CC(=O)N1C2CCC1CN(C(=O)OC1([C@H]3COC[C@@H](C4CC4)N3S(=O)(=O)c3ccc(Cl)cc3)CC1)C2 | 567 ng·h/mL
12 | CN1CC2CCC(C1)N2C(=O)OC1([C@H]2COC[C@@H](C3CC3)N2S(=O)(=O)c2ccc(Cl)cc2)CC1 | 2910 ng·h/mL
13 | CC(C)(CO)N1CCN(C(=O)OC2([C@H]3COC[C@@H](C4CC4)N3S(=O)(=O)c3ccc(Cl)cc3)CC2)CC1 | 446 ng·h/mL
14 | CC(=O)N1C2CCC1CN(C(=O)OC1([C@H]3COC(C)(C)[C@@H](C4CC4)N3S(=O)(=O)c3ccc(Cl)cc3)CC1)C2 | 6 ng·h/mL
15 | CC(=O)N1C2CCC1CN(C(=O)OC1([C@H]3COC[C@@H](C4CC4)N3S(=O)(=O)c3ccc(Cl)cc3)CC1)C2 | 871 ng·h/mL

molecular target: not listed separately; test: Inhibition of gamma-secretase assessed as reduction in membrane amyloid beta40 production; conditions: not given

Row | Structure (SMILES) | IC50
16 | CN1C2CCC1CN(C(=O)OC1([C@H]3COC[C@@H](C4CC4)N3S(=O)(=O)c3ccc(Cl)cc3)CC1)C2 | 4.6 nM
17 | O=C(OC1([C@H]2COC[C@@H](C3CC3)N2S(=O)(=O)c2ccc(Cl)cc2)CC1)N1CC[C@H](NS(=O)(=O)C(F)(F)F)C1 | 49 nM
18 | CC1(C)OC[C@H](C2(OC(=O)N3CC4CCC(C3)N4CCO)CC2)N(S(=O)(=O)c2ccc(Cl)cc2)[C@@H]1C1CC1 | 1.1 nM
19 | NC(=O)CC1CCN(C(=O)OC2([C@H]3COC[C@@H](C4CC4)N3S(=O)(=O)c3ccc(Cl)cc3)CC2)CC1 | 14 nM
20 | O=C(OC1([C@H]2COC[C@@H](C3CC3)N2S(=O)(=O)c2ccc(Cl)cc2)CC1)N1C2CCC1CN(CCO)C2 | 15 nM
21 | CC(=O)N1C2CCC1CN(C(=O)OC1([C@H]3CO[C@@H](C)[C@@H](C4CC4)N3S(=O)(=O)c3ccc(Cl)cc3)CC1)C2 | 5.4 nM
22 | O=C(OC1([C@H]2COC[C@@H](C3CC3)N2S(=O)(=O)c2ccc(Cl)cc2)CC1)N1C2CCC1CNC2 | 17 nM
23 | O=C(OC1([C@H]2COC[C@@H](C3CC3)N2S(=O)(=O)c2ccc(Cl)cc2)CC1)N1CC[C@H](OCCO)C1 | 20 nM
24 | CCN1C2CCC1CN(C(=O)OC1([C@H]3COC[C@@H](C4CC4)N3S(=O)(=O)c3ccc(Cl)cc3)CC1)C2 | 10 nM
25 | O=C(OC1([C@H]2COC[C@@H](C3CC3)N2S(=O)(=O)c2ccc(Cl)cc2)CC1)N1CC2CCC(C1)N2 | 7.1 nM
26 | CN(C)CC(=O)N1C2CCC1CN(C(=O)OC1([C@H]3COC[C@@H](C4CC4)N3S(=O)(=O)c3ccc(Cl)cc3)CC1)C2 | 8.9 nM
27 | CN1CC2CCC(C1)N2C(=O)OC1([C@H]2COC[C@@H](C3CC3)N2S(=O)(=O)c2ccc(Cl)cc2)CC1 | 2.4 nM
28 | CC(C)(CO)N1CCN(C(=O)OC2([C@H]3COC[C@@H](C4CC4)N3S(=O)(=O)c3ccc(Cl)cc3)CC2)CC1 | 9.5 nM
29 | CC(=O)N1C2CCC1CN(C(=O)OC1([C@H]3COC(C)(C)[C@@H](C4CC4)N3S(=O)(=O)c3ccc(Cl)cc3)CC1)C2 | 4.6 nM
30 | CC(=O)N1C2CCC1CN(C(=O)OC1([C@H]3COC[C@@H](C4CC4)N3S(=O)(=O)c3ccc(Cl)cc3)CC1)C2 | 15 nM

tested on: not listed separately; test: Inhibition of gamma-secretase assessed as reduction in cell amyloid beta40 production; conditions: not given

Row | Structure (SMILES) | IC50
31 | CN1C2CCC1CN(C(=O)OC1([C@H]3COC[C@@H](C4CC4)N3S(=O)(=O)c3ccc(Cl)cc3)CC1)C2 | 20 nM
32 | NC(=O)CC1CCN(C(=O)OC2([C@H]3COC[C@@H](C4CC4)N3S(=O)(=O)c3ccc(Cl)cc3)CC2)CC1 | 41 nM
33 | O=C(OC1([C@H]2COC[C@@H](C3CC3)N2S(=O)(=O)c2ccc(Cl)cc2)CC1)N1C2CCC1CN(CCO)C2 | 27 nM
34 | O=C(OC1([C@H]2COC[C@@H](C3CC3)N2S(=O)(=O)c2ccc(Cl)cc2)CC1)N1C2CCC1CNC2 | 72 nM
35 | O=C(OC1([C@H]2COC[C@@H](C3CC3)N2S(=O)(=O)c2ccc(Cl)cc2)CC1)N1CC[C@H](OCCO)C1 | 31 nM
36 | CCN1C2CCC1CN(C(=O)OC1([C@H]3COC[C@@H](C4CC4)N3S(=O)(=O)c3ccc(Cl)cc3)CC1)C2 | 25 nM
37 | O=C(OC1([C@H]2COC[C@@H](C3CC3)N2S(=O)(=O)c2ccc(Cl)cc2)CC1)N1CC2CCC(C1)N2 | 25 nM
38 | CN(C)CC(=O)N1C2CCC1CN(C(=O)OC1([C@H]3COC[C@@H](C4CC4)N3S(=O)(=O)c3ccc(Cl)cc3)CC1)C2 | 31 nM
39 | CN1CC2CCC(C1)N2C(=O)OC1([C@H]2COC[C@@H](C3CC3)N2S(=O)(=O)c2ccc(Cl)cc2)CC1 | 17 nM
40 | CC(C)(CO)N1CCN(C(=O)OC2([C@H]3COC[C@@H](C4CC4)N3S(=O)(=O)c3ccc(Cl)cc3)CC2)CC1 | 9 nM
41 | CC(=O)N1C2CCC1CN(C(=O)OC1([C@H]3COC[C@@H](C4CC4)N3S(=O)(=O)c3ccc(Cl)cc3)CC1)C2 | 25 nM

tested on: Mus musculus; test: Reduction of amyloid beta40 level in TgCRND8 mouse plasma at 30 mg/kg, sc after 3 hrs; type: functional; parameters: scale not given: the % may be the effect or the level left; conditions: route subcutaneous

Row | Structure (SMILES) | Activity
42 | CN1C2CCC1CN(C(=O)OC1([C@H]3COC[C@@H](C4CC4)N3S(=O)(=O)c3ccc(Cl)cc3)CC1)C2 | -88%
43 | O=C(OC1([C@H]2COC[C@@H](C3CC3)N2S(=O)(=O)c2ccc(Cl)cc2)CC1)N1CC2CCC(C1)N2 | -90%
44 | CC(C)(CO)N1CCN(C(=O)OC2([C@H]3COC[C@@H](C4CC4)N3S(=O)(=O)c3ccc(Cl)cc3)CC2)CC1 | -78%
